Measurements published in patent US4769378A, “Indenopyrimidine aromatase inhibitors” (Eli Lilly and Company, priority 1986, dated 1988).
pEC50: −log10 of the molar value. Like-named read-outs stand apart in the source and are kept apart here.

Legend:
aromatase = molecular target: T1, aromatase (Rattus norvegicus, UniProt P22443); assay: Aromatase inhibition in the rat ovarian microsome assay; format: biochemical; conditions: substrate (androstenedione) concentration 0.1 μM; rat ovarian microsomes; read-out: EC50 (concentration of compound required to achieve 50% inhibition of aromatase activity)
T1 construct: ovarian microsomes are obtained from rats treated with pregnant mares serum gonadotropin; from tissue; host or cells: rat ovary microsomes (rats treated with pregnant mares serum gonadotropin)
T1 sequence (P22443 1-508): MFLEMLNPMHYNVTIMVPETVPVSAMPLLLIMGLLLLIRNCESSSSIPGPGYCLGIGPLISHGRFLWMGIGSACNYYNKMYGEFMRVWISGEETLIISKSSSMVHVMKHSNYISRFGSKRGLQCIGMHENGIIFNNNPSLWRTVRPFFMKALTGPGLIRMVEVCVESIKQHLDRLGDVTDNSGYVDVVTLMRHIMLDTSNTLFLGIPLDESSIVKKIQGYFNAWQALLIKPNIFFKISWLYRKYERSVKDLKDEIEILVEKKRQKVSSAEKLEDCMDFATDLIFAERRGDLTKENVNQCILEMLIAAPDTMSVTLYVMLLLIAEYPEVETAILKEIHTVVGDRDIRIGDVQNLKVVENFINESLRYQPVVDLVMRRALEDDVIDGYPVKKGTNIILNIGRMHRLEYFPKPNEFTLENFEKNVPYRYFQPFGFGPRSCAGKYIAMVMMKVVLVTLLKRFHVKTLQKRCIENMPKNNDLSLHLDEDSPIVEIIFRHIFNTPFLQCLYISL
Method: In this test system, ovarian microsomes are obtained from rats treated with pregnant mares serum gonadotropin. Test compounds are added to reaction vials containing 0.1 μM 4-androstene-3,17-dione, 100,000 dpm 1,2[^3 H]-androstenedione, the microsomes and a NADPH generating system. The concentrations of the inhibitors tested ranged between 5 and 10000 nM. […] Potency is determined based on the concentration of inhibitor in nM required to produce a 50% inhibition of enzyme activity (EC50) when the concentration of substrate (androstenedione) is 0.1 μM.

[1] = test system: DMBA-induced mammary tumors; assay: DMBA-induced Mammary Tumor Inhibition; format: in vivo, female Sprague-Dawley rats
Method: Mammary tumors were produced in female Sprague-Dawley rats which were 50-60 days old by the gavage administration of 20 mg of 7,12-dimethylbenz[a]anthracene (DMBA). About six weeks after DMBA administration, the mammary glands were palpated at weekly intervals for the appearance of tumors. Whenever one or more tumors appeared and were measurable in an animal, that animal was selected for experimentation. […] Each control and test group contained 5-8 animals. Each test compound was administered in corn oil once daily by gavage. Every experiment included a group of control rats having tumors and were given corn oil vehicle by gavage. […] The area of each tumor was calculated by multiplying the shortest and longest diameters of the tumor. The treatment and measurement of animals continued for 4-6 weeks at which time the final areas of the tumors were determined. For each compound (and control) at each dose level, the change in the mean tumor area was determined. The mean change was analyzed for its significance using Dunnett's t-test.

[2] = test system: Estrogen synthesis (aromatization); assay: Estrogen Synthesis Inhibition in Rats; format: in vivo, immature female Wistar rats; conditions: Rattus norvegicus, po, 168 h, gavage; for response vs control in vivo at 3 mg/kg: 3 mg/kg × 7 days; for response vs control in vivo at 30 mg/kg: 30 mg/kg × 7 days; for response vs control in vivo at 10 mg/kg: 10 mg/kg × 7 days;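 as to Uterine Wt. %: 100% equals the stimulated control's weight gain over the unstimulated control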
Method: By virtue of their ability to inhibit the enzyme aromatase, the compounds of this invention are able to inhibit the synthesis of estrogens in mammals, thereby making the compounds useful in the treatment of estrogen-dependent diseases, such as breast cancer.
Immature female Wistar rats (45-55 grams) were divided into control and test groups of 2-8 animals each. Test compounds were administered for seven days daily by gavage in corn oil. Control animals received corn oil without the test compound. Beginning on the fourth day of the test, all animals treated with the test compound and one half of the control animals were given a subcutaneous injection of 1.0 mg of testosterone propionate in corn oil. The remaining control animals received only an equivalent volume of corn oil. On the seventh day of the test, rats treated with testosterone propionate were injected subcutaneously with 100 μCi of [^3 H]-testosterone in 50 μl of saline-ethanol (3:1).
After two hours, the animals were killed by decapitation. Uteri were isolated, trimmed of extraneous connective tissue, and weighed. […] In the control animals treated with testosterone propionate, estrogens produced by aromatization stimulated the uterus resulting in an increase in weight.
Ovaries from rats treated with [^3 H]-testosterone were excised, cleaned of extraneous tissue, and homogenized in 2.5 ml of a 1.0 mM potassium phosphate buffer containing 3.0 mM MgCl2.6H2 O, 320 mM sucrose, and 0.25% Triton X-100 (polyethylene glycol p-isooctyl phenyl ether, Rohm and Haas) at pH 6.5. The ovarian steroids were extracted with 1.5 ml of 9:1 toluene/ethanol to which had been added 25 to 100 mcg each of unlabelled estradiol, estriol, and estrone, and approximately 1000 dpm of [^14 C]-estradiol. The samples were vortexed, centrifuged at 500×g for 10 minutes, and the organic phase was transferred to a conical vial. Two additional extractions were performed on the residue in the same way. The pooled organic extracts were evaporated for subsequent thin-layer chromatography.
Ovarian proteins were precipitated by the addition of 5.0 ml of ethanol to the remaining aqueous phase. After an overnight incubation at 4° C., the samples were centrifuged at 1500×g for 10 minutes. The supernatant was discarded and the pellet was dissolved in 0.3 N potassium hydroxide. Protein was determined according to the method of Bradford, Analytical Biochemistry, 72, 248 (1976).
The organic residue from each above extraction was redissolved in 9:1 dichloromethane/methanol. The solution of each sample was applied to separate silica gel thin layer chromatography plates which contained a fluorescent indicator. The plates were developed the first dimension with 160:38:1.5:0.5 dichloromethane/ethyl acetate/methanol/acetic acid to within 3 cm of the top of the plate. After air-drying, the plate was developed in the second dimension with 180:19:1 dichloromethane/methanol/ammonium hydroxide. The plate was air-dried and viewed under 254 nm UV light.
The visible spots were marked and the plates were sprayed with primulin (0.001% in 4:1 acetone/water) according to the method of Wright, J. Chromatography, 59, 220 (1971) which allowed for the identification of additional steroids under 365 nm UV light. The spots were scraped from the plate using a glass wool plugged Pasteur pipet attached to a vacuum line. The steroids were eluted directly into scintillation vials by the addition of 0.2 ml of dichloromethane followed by two washes each of 2.0 ml of methanol. The organic solvent was evaporated and 10.0 ml of scintillation fluid (Beckman Ready Solv-NA) was added to the vials. Samples were analyzed by liquid scintillation spectrometry and the corrections were made based on the recoveries of the [^14 C]-steroid.
In Table 2, values for uterine weight are expressed as the respective weights of drug treated (DT), unstimulated corn oil control (UC), and stimulated corn oil control (SC) according to the calculation %=100 (DT-UC)/(SC-UC). […]

breast cancer = conditions: Cancer Research, Vol. 42, Suppl 8 (1982); cited from earlier work
[3] = 100 (DT-UC)/(SC-UC), read-out: Uterine Wt. %
[4] = ovaries, percent of testosterone-treated controls, read-out: % steroid concentration, estradiol
[5] = ovaries, percent of testosterone-treated controls, read-out: % steroid concentration, estrone

Row | pEC50 (aromatase) | Structure (SMILES) | Final Tumor Area ± S.E. ([1]; Test II, 10 mg/kg daily by gavage, 4 weeks, control 698 ± 78) | Final Tumor Area ± S.E. ([1]; Test II, 30 mg/kg daily by gavage, 4 weeks, control 698 ± 78) | Final Tumor Area ± S.E. ([1]; Test II, 50 mg/kg daily by gavage, 4 weeks, control 698 ± 78) | response vs control in vivo at 3 mg/kg [2, 3] | response vs control in vivo at 3 mg/kg [2, 4] | response vs control in vivo at 3 mg/kg [2, 5] | response vs control in vivo at 30 mg/kg [2, 3] | response vs control in vivo at 30 mg/kg [2, 4] | response vs control in vivo at 30 mg/kg [2, 5] | Final Tumor Area ± S.E. ([1]; Test I, 3 mg/kg daily by gavage, 4 weeks, control 741 ± 193) | Final Tumor Area ± S.E. ([1]; Test I, 10 mg/kg daily by gavage, 4 weeks, control 741 ± 193) | Final Tumor Area ± S.E. ([1]; Test I, 30 mg/kg daily by gavage, 4 weeks, control 741 ± 193) | response vs control in vivo at 10 mg/kg [2, 3] | response vs control in vivo at 10 mg/kg [2, 4] | response vs control in vivo at 10 mg/kg [2, 5] | Final Tumor Area ± S.E. ([1]; Test III, 10 mg/kg daily by gavage, 6 weeks, control 2053 ± 778) | Final Tumor Area ± S.E. ([1]; Test III, 30 mg/kg daily by gavage, 6 weeks, control 2053 ± 778) | effect in treatment of breast cancer (breast cancer)
1 | 7.68 | Clc1ccc(C2c3ccccc3-c3ncncc32)cc1 (stereo not shown) [Example 2, 5-(4-chlorophenyl)-5H-indeno[1,2-d]pyrimidine] | 287 ± 94 mm^2 | 814 ± 223 mm^2 | 552 ± 177 mm^2 | 49.1% | 40.5% | 106% | 33.3% | 19.4% | 83.2% | – | – | – | – | – | – | – | – | –
2 | 7.62 | Clc1ccc(C2c3ccc(Cl)cc3-c3ncncc32)cc1 (stereo not shown) [Example 1, 8-chloro-5-(4-chlorophenyl)-5H-indeno[1,2-d]pyrimidine] | – | – | – | 50.2% | 31.5% | 31.5% | 20.6% | 23.6% | 118% | 162 ± 93 mm^2 | 74 ± 45 mm^2 | 6 ± 6 mm^2 | 37.3% | 17.2% | 31.4% | – | – | –
3 | 7.62 | Fc1ccc(C2c3ccc(F)cc3-c3ncncc32)cc1 (stereo not shown) [Example 6, 8-fluoro-5-(4-fluorophenyl)-5H-indeno[1,2-d]pyrimidine] | – | – | – | 0.7% | 10.2% | 70.3% | 6.9% | 2.9% | 57.1% | – | – | – | – | – | – | 109 ± 62 mm^2 | 393 ± 254 mm^2 | –
4 | – | CCC1(c2ccc(N)cc2)CCC(=O)NC1=O (stereo not shown) [aminoglutethimide] | – | – | – | – | – | – | – | – | – | – | – | – | – | – | – | – | – | beneficial effect in treatment of breast cancer
5 | – | C[C@]12CCC(=O)C=C1CC[C@@H]1[C@@H]2CC[C@]2(C)OC(=O)CC[C@@H]12 [testololactone] | – | – | – | – | – | – | – | – | – | – | – | – | – | – | – | – | – | beneficial effect in treatment of breast cancer
